What was measured:
[1] = system: MCF7 breast cancer cell line (ER+); assay: In vitro cell line proliferation assay (MTS), MCF7; assay type: cell-based; conditions: 96 hours; for inhibition of cell line proliferation: ER+ MCF7, escalating doses
Method: (§1) In vitro cell line proliferation assays. MCF7 and SK-BR-3 breast cancer cell lines were provided by the American Type Culture Collections (ATCC; Manassas, Va.) and cultured in complete medium (high glucose DMEM supplemented with 10% fetal bovine serum, L-glutamine, and pen/strep antibiotics). Drugs were purchased from Sigma-Aldrich (St. Louis, Mo.). Proliferation assays were performed as previously described with minor modifications. Cells were seeded at 5×10^3 cells per well in a 96 well plate in the morning. […] The plates were incubated at 37° C./5% CO2 for 96 hours. Cell proliferation was analyzed using MTS reagent (Promega; Madison, Wis.) according to manufacturer's protocol.
(§2) Tamoxifen was selected as a currently used breast cancer drug for comparison. […] Cell proliferation was measured using the MTS assay according to manufacturer's protocol.

[2] = system: SK-BR-3 breast cancer cell line (ER−); assay: In vitro cell line proliferation assay (MTS), SKBR3; assay type: cell-based; conditions: 96 hours; for inhibition of cell line proliferation: ER− SKBR3, escalating doses
Method: as §1, §2

[3] = patients; donepezil doses up to 23 mg/day; cited from earlier work

Row | Molecule | inhibition of cell line proliferation [1] | IC50 ([1]; ER+ MCF7 cells, complete medium, MTS) [µM] | inhibition of cell line proliferation [2] | IC50 ([2]; ER− SKBR3 cells, complete medium, MTS) [µM] | side effects / worst adverse drug reactions [3]
1 | 4-hydroxytamoxifen [Drug 4OHtam] | dose dependent inhibition | 31.2 ± 4.9 | dose dependent inhibition | 55.7 ± 4.2 | –
2 | COc1cc2c(cc1OC)C(=O)C(CC1CCN(Cc3ccccc3)CC1)C2 (racemic) [Donepezil, (RS)-2-[(1-benzyl-4-piperidyl)methyl]-5,6-dimethoxy-2,3-dihydroinden-1-one] | dose dependent inhibition | – | dose dependent inhibition | – | –
3 | CC/C(=C(\c1ccccc1)c1ccc(OCCN(C)C)cc1)c1ccccc1 [Tamoxifen] | – | – | – | – | severe side effects including the development of endometrial cancer
